# Source: ChEMBL document CHEMBL3046287, “Azoxystrobin resistance of French Mycosphaerella graminicola strains assessed by four in vitro bioassays and by screening of G143A substitution” (Crop Prot, 2010)
# Tests used:
# Type in all cases: functional, organism-based
# Zymoseptoria tritici [1] = experiment: Antifungal activity against azoxystrobin-sensitive Zymoseptoria tritici T0210 carrying cytochrome-b G143 allele assessed as fungal growth inhibition after 6 days at 20 degC by microplate without alamar blue assay; details: T0210, 144 h
# Zymoseptoria tritici [2] = experiment: Antifungal activity against azoxystrobin-sensitive Zymoseptoria tritici T0211 carrying cytochrome-b G143 allele assessed as inhibition of spore germination after 2 days at 18 degC by spotting on PDA medium assay; details: T0211, 48 h
# Zymoseptoria tritici [3] = experiment: Antifungal activity against azoxystrobin-sensitive Zymoseptoria tritici T0214 carrying cytochrome-b G143 allele assessed as fungal growth inhibition after 6 days at 20 degC by microplate without alamar blue assay; details: T0214, 144 h
# Zymoseptoria tritici [4] = experiment: Antifungal activity against azoxystrobin-resistant Zymoseptoria tritici T0345 carrying cytochrome-b A143 allele assessed as fungal growth inhibition after 6 days at 20 degC by microplate without alamar blue assay; details: T0345, 144 h
# Zymoseptoria tritici [5] = experiment: Antifungal activity against azoxystrobin-resistant Zymoseptoria tritici T049 carrying cytochrome-b A143 allele assessed as fungal colony perpendicular diameter changes after 10 days at 18 degC by spotting on PDA medium assay; details: T049, 240 h
# Zymoseptoria tritici [6] = experiment: Antifungal activity against azoxystrobin-resistant Zymoseptoria tritici T032 carrying cytochrome-b A143 allele assessed as inhibition of spore germination after 2 days at 18 degC by spotting on PDA medium assay; details: T032, 48 h
# Zymoseptoria tritici [7] = experiment: Antifungal activity against azoxystrobin-sensitive Zymoseptoria tritici T0210 carrying cytochrome-b G143 allele assessed as inhibition of spore germination after 2 days at 18 degC by spotting on PDA medium assay; details: T0210, 48 h
# Zymoseptoria tritici [8] = experiment: Antifungal activity against azoxystrobin-sensitive Zymoseptoria tritici T0213 carrying cytochrome-b G143 allele assessed as inhibition of spore germination after 2 days at 18 degC by spotting on PDA medium assay; details: T0213, 48 h
# Zymoseptoria tritici [9] = experiment: Antifungal activity against azoxystrobin-sensitive Zymoseptoria tritici T0214 carrying cytochrome-b G143 allele assessed as fungal colony perpendicular diameter changes after 10 days at 18 degC by spotting on PDA medium assay; details: T0214, 240 h
# Zymoseptoria tritici [10] = experiment: Antifungal activity against azoxystrobin-resistant Zymoseptoria tritici T0414 carrying cytochrome-b A143 allele assessed as inhibition of spore germination after 2 days at 18 degC by spotting on PDA medium assay; details: T0414, 48 h
# Zymoseptoria tritici [11] = experiment: Antifungal activity against azoxystrobin-resistant Zymoseptoria tritici T0451 carrying cytochrome-b A143 allele assessed as inhibition of spore germination after 2 days at 18 degC by spotting on PDA medium assay; details: T0451, 48 h
# Zymoseptoria tritici [12] = experiment: Antifungal activity against azoxystrobin-resistant Zymoseptoria tritici T0451 carrying cytochrome-b A143 allele assessed as fungal colony perpendicular diameter changes after 10 days at 18 degC by spotting on PDA medium assay; details: T0451, 240 h
# Zymoseptoria tritici [13] = experiment: Antifungal activity against azoxystrobin-resistant Zymoseptoria tritici T0414 carrying cytochrome-b A143 allele assessed as fungal growth inhibition after 6 days at 20 degC by microplate without alamar blue assay; details: T0414, 144 h
# Zymoseptoria tritici [14] = experiment: Antifungal activity against azoxystrobin-sensitive Zymoseptoria tritici T0473 carrying cytochrome-b G143 allele assessed as inhibition of spore germination after 2 days at 18 degC by spotting on PDA medium assay; details: T0473, 48 h
# Zymoseptoria tritici [15] = experiment: Antifungal activity against azoxystrobin-sensitive Zymoseptoria tritici T0211 carrying cytochrome-b G143 allele assessed as fungal colony perpendicular diameter changes after 10 days at 18 degC by spotting on PDA medium assay; details: T0211, 240 h
# Zymoseptoria tritici [16] = experiment: Antifungal activity against azoxystrobin-sensitive Zymoseptoria tritici T0278 carrying cytochrome-b G143 allele assessed as fungal colony perpendicular diameter changes after 10 days at 18 degC by spotting on PDA medium assay; details: T0278, 240 h
# Zymoseptoria tritici [17] = experiment: Antifungal activity against azoxystrobin-resistant Zymoseptoria tritici T032 carrying cytochrome-b A143 allele assessed as fungal growth inhibition after 6 days at 20 degC by microplate without alamar blue assay; details: T032, 144 h
# Zymoseptoria tritici [18] = experiment: Antifungal activity against azoxystrobin-sensitive Zymoseptoria tritici IPO323 carrying cytochrome-b G143 allele assessed as fungal growth inhibition after 6 days at 20 degC by microplate without alamar blue assay; details: IPO323, 144 h
# Zymoseptoria tritici [19] = experiment: Antifungal activity against azoxystrobin-resistant Zymoseptoria tritici T0262 carrying cytochrome-b A143 allele assessed as fungal growth inhibition after 6 days at 20 degC by microplate without alamar blue assay; details: T0262, 144 h
# Zymoseptoria tritici [20] = experiment: Antifungal activity against azoxystrobin-resistant Zymoseptoria tritici T049 carrying cytochrome-b A143 allele assessed as fungal growth inhibition after 6 days at 20 degC by microplate without alamar blue assay; details: T049, 144 h
# Zymoseptoria tritici [21] = experiment: Antifungal activity against azoxystrobin-sensitive Zymoseptoria tritici T0278 carrying cytochrome-b G143 allele assessed as fungal growth inhibition after 6 days at 20 degC by microplate without alamar blue assay; details: T0278, 144 h
# Zymoseptoria tritici [22] = experiment: Antifungal activity against azoxystrobin-sensitive Zymoseptoria tritici T0471 carrying cytochrome-b G143 allele assessed as fungal colony perpendicular diameter changes after 10 days at 18 degC by spotting on PDA medium assay; details: T0471, 240 h
# Zymoseptoria tritici [23] = experiment: Antifungal activity against azoxystrobin-resistant Zymoseptoria tritici T0242 carrying cytochrome-b A143 allele assessed as fungal colony perpendicular diameter changes after 10 days at 18 degC by spotting on PDA medium assay; details: T0242, 240 h
# Zymoseptoria tritici [24] = experiment: Antifungal activity against azoxystrobin-resistant Zymoseptoria tritici T055 carrying cytochrome-b A143 allele assessed as fungal colony perpendicular diameter changes after 10 days at 18 degC by spotting on PDA medium assay; details: T055, 240 h
# Zymoseptoria tritici [25] = experiment: Antifungal activity against azoxystrobin-resistant Zymoseptoria tritici T0485 carrying cytochrome-b A143 allele assessed as fungal colony perpendicular diameter changes after 10 days at 18 degC by spotting on PDA medium assay; details: T0485, 240 h
# Zymoseptoria tritici [26] = experiment: Antifungal activity against azoxystrobin-sensitive Zymoseptoria tritici T0365 carrying cytochrome-b G143 allele assessed as fungal colony perpendicular diameter changes after 10 days at 18 degC by spotting on PDA medium assay; details: T0365, 240 h
# Zymoseptoria tritici [27] = experiment: Antifungal activity against azoxystrobin-sensitive Zymoseptoria tritici T0209 carrying cytochrome-b G143 allele assessed as fungal growth inhibition after 6 days at 20 degC by microplate without alamar blue assay; details: T0209, 144 h
# Zymoseptoria tritici [28] = experiment: Antifungal activity against azoxystrobin-sensitive Zymoseptoria tritici T083 carrying cytochrome-b G143 allele assessed as fungal growth inhibition after 6 days at 20 degC by microplate without alamar blue assay; details: T083, 144 h
# Zymoseptoria tritici [29] = experiment: Antifungal activity against azoxystrobin-resistant Zymoseptoria tritici T0290 carrying cytochrome-b A143 allele assessed as fungal colony perpendicular diameter changes after 10 days at 18 degC by spotting on PDA medium assay; details: T0290, 240 h
# Zymoseptoria tritici [30] = experiment: Antifungal activity against azoxystrobin-sensitive Zymoseptoria tritici T0470 carrying cytochrome-b G143 allele assessed as fungal colony perpendicular diameter changes after 10 days at 18 degC by spotting on PDA medium assay; details: T0470, 240 h
smiles,measurement,setting,value
CO/C=C(/C(=O)OC)c1ccccc1Oc1cc(Oc2ccccc2C#N)ncn1 [AZOXYSTROBIN],IC50,Zymoseptoria tritici [1],0.03 µg/mL
same,IC50,Zymoseptoria tritici [2],0.08 µg/mL
same,IC50,Zymoseptoria tritici [3],0.02 µg/mL
same,IC50,Zymoseptoria tritici [4],> 100 µg/mL
same,IC50,Zymoseptoria tritici [5],19.4 µg/mL
same,IC50,Zymoseptoria tritici [6],11.6 µg/mL
same,IC50,Zymoseptoria tritici [7],0.01 µg/mL
same,IC50,Zymoseptoria tritici [8],0.16 µg/mL
same,IC50,Zymoseptoria tritici [9],0.09 µg/mL
same,IC50,Zymoseptoria tritici [10],16.2 µg/mL
same,IC50,Zymoseptoria tritici [11],29.6 µg/mL
same,IC50,Zymoseptoria tritici [12],14.7 µg/mL
same,IC50,Zymoseptoria tritici [13],> 100 µg/mL
same,IC50,Zymoseptoria tritici [14],0.05 µg/mL
same,IC50,Zymoseptoria tritici [15],0.08 µg/mL
same,IC50,Zymoseptoria tritici [16],0.17 µg/mL
same,IC50,Zymoseptoria tritici [17],> 100 µg/mL
same,IC50,Zymoseptoria tritici [18],0.01 µg/mL
same,IC50,Zymoseptoria tritici [19],11.7 µg/mL
same,IC50,Zymoseptoria tritici [20],> 100 µg/mL
same,IC50,Zymoseptoria tritici [21],0.04 µg/mL
same,IC50,Zymoseptoria tritici [22],0.1 µg/mL
same,IC50,Zymoseptoria tritici [23],12 µg/mL
same,IC50,Zymoseptoria tritici [24],10.2 µg/mL
same,IC50,Zymoseptoria tritici [25],10.6 µg/mL
same,IC50,Zymoseptoria tritici [26],0.11 µg/mL
same,IC50,Zymoseptoria tritici [27],0.01 µg/mL
same,IC50,Zymoseptoria tritici [28],0.5 µg/mL
same,IC50,Zymoseptoria tritici [29],11.2 µg/mL
same,IC50,Zymoseptoria tritici [30],0.06 µg/mL
